# Marks after values point to notes of the source that are not given here.
# Legend:
# [1] = tested on: A549 (lung carcinoma) cells; test: MTT cytotoxicity assay, A549; type: cell-based, human
# Description: (§1) All cells were cultured using standard culture conditions at 37° C., 5% CO2, and 95% humidity. A549 (CCL-185), OVCAR-3 (HTB-161), T24 (HTB-4), and NCI/ADR-RES were cultured in RPMI-1640 supplemented with 10% v/v fetal bovine serum (FBS), 2 mM L-glutamine (L-Gln), 10,000 units penicillin/mL, 10 mg/mL streptomycin, and 25 μg/mL amphotericin B. HUVEC (PCS-100-010) cells were cultured in Vascular Cell Basal Media (PCS-100-030) supplemented with an Endothelial Cell Growth Kit-VEGF (PCS-100-041) and 10 μg/mL gentamycin in culture flasks coated with 0.1% gelatin by incubating at 37° C. for 15 min. NL20 (CRL-2503) cells were cultured in Ham's F12 supplemented with 1.5 g/L sodium bicarbonate, 2.7 g/L glucose, 2.0 mM L-glutamine, 0.1 mM nonessential amino acids, 0.005 mg/ml insulin, 10 ng/ml epidermal growth factor, 0.001 mg/ml transferrin, 500 ng/ml hydrocortisone and 4% fetal bovine serum, as advised by American Type Culture Collection (ATCC).
# (§2) Viability was calculated by comparing to an untreated control.
# (§3) All experiments were performed with n>6.
# Cell viability experiments were completed n>6 in two independent experiments and analyzed using GraphPad Prism 8 to fit curves and calculate IC50 values using inhibitor vs. normalized response non-linear regression model. IC50 values are reported as mean values±standard deviation. […] Pore size frequency distribution was completed by ImageJ FIJI on 4 independent cells and n=30 pores from SEM images. UV-Vis OD600 and CD spectra are means of 5 and 3 replicates, respectively and reported as mean±standard deviation. Individual UV-Vis and CD spectra, as well as fluorescent confocal and TEM micrographs, shown are representative plots from three individual experiments. CD data is with a variance in ellipticity of 0.2 millidegrees at each wavelength. Relative fluorescence data calculated from fluorescent confocal images represents the average of 10 independent measurements±standard deviation. For spheroid volume analysis, a Kruskal-Wallis test and Dunn's multiple comparisons test was performed using GraphPad Prism 8.
# [2] = tested on: patient-derived tumor cell spheroids (EOC15, 17, 19); test: Ex vivo 3D tumor spheroid culture; type: cell-based, human; conditions: 2 μM cisplatin or 4 μM MAD1 alone, 48 hours
# Description: EOC patient-derived cells were cultured in 1:1 MCDB-105: M199 supplemented with 10% FBS and 1% penicillin-streptomycin. EOC patient-derived cells were provided by Dr. Katherine M. Aird under an Institutional Review Board-approved protocol. EOC patient-derived cells were collected from patient ascites fluid after paracentesis procedures. Cells were routinely tested for mycoplasma as previously described. […] Spheroid length and width was calculated using ImageJ. Spheroid volume was calculated using the following equation […] Statistical Methods […] IC50 values are reported as mean values±standard deviation. […] Pore size frequency distribution was completed by ImageJ FIJI on 4 independent cells and n=30 pores from SEM images. […] Individual UV-Vis and CD spectra, as well as fluorescent confocal and TEM micrographs, shown are representative plots from three individual experiments. CD data is with a variance in ellipticity of 0.2 millidegrees at each wavelength. Relative fluorescence data calculated from fluorescent confocal images represents the average of 10 independent measurements±standard deviation. For spheroid volume analysis, a Kruskal-Wallis test and Dunn's multiple comparisons test was performed using GraphPad Prism 8.
# [3] = tested on: non-cancerous cell lines HUVEC and NL20; test: MTT cytotoxicity, non-cancerous control cell lines; type: cell-based, human
# Description: as §1, §2, §3
# [4] = tested on: MR S. aureus; conditions: 24 hours, Gram Positive
# [5] = tested on: P. aeruginosa; conditions: 24 hours, Gram Negative
# [6] = Liposome disruption (OD600), cancer membrane model; conditions: OD600 and visual flocculates
# Description: (§4) Liposomes were prepared by extrusion techniques according to previous methods. Briefly, all liposomes were prepared in 2×concentration (5 mM). Healthy and cancer liposomal mimicking membranes were prepared with 72:23:[…] phosphatidylcholine (POPC):phosphatidylethanolamine (DOPE):phosphatidylserine (POPS) lipids, respectively. The lipids dissolved in chloroform were mixed in proper molar proportions before being evaporated under a stream of argon. The lipid film was then dried completely by lyophilization overnight. […] The extruded liposomes were then dialyzed in 3500 MWCO dialysis cassettes against water. Parallel optical density experiments were conducted measuring the absorbance at 600 nm (OD600) to track the kinetics and specificity of membrane disruption. Measurements were taken every 30 seconds for the first 10 min., followed by measurements every minute until 15 min.
# [7] = tested on: E. coli; conditions: 24 hours, Gram Negative
# [8] = tested on: OVCAR-3 cells; test: Annexin V-PI flow cytometry apoptosis assay; type: cell-based, human; conditions: IC50 of MAD1 (14 μM)
# Description: OVCAR-3 cells were first seeded at 2×10^5 cells/well in 12 well plates. The cells were then allowed to adhere overnight. […] Wells were left in 5% serum media for negative and compensation controls. Cells were then trypsinized, washed in cold PBS, and centrifuged at 3,000 rpm at 15° C. for 5 min. After the supernatant was aspirated, the cells were resuspended in 100 μL of Annexin V Binding Buffer. In the dark, 5 μL of FITC Annexin V and 10 μL of Propidium Iodine solution were added to the cells, with compensation controls of a negative control with no staining, a FITC Annexin V only control, and a PI only control. The cells were then vortexed gently to combine and allowed to incubate for 15 min. at room temperature. 400 μL of Annexin V Binding Buffer was then added to each tube and stored on ice prior to analyzing by flow cytometry.
# Flow cytometry was conducted on a LSRFortessa Flow Cytometer (BD Biosciences, Franklin Lakes, N.J.) using 488 nm and 532 nm lasers for FITC and PE-Texas Red signals to detect Annexin V and PI, respectively. Compensation was completed for 10,000 cells, and experiments were conducted over 20,000 cells.
# [9] = Liposome disruption (OD600), normal membrane model
# Description: as §4
# [10] = tested on: OVCAR-3 ovarian carcinoma cells
# [11] = tested on: T24 (urinary bladder transitional cell carcinoma) cells; test: MTT cytotoxicity assay, T24
# [12] = tested on: M. tuberculosis; conditions: 24 hours, Mycobacteria
substance,measurement,setting,value
H-KRWHWWRRHWVVW-NH2 [MAD1],IC50,"[1]; 48 hours treatment, MTT, read-out: Cancerous (IC50, μM) A549",36.2 µM
same,Therapeutic Index A549,[1]; IC50-HUVEC/IC50-A549,2.8
same,cytotoxic activity against A549,[1]; result in words,moderate activity
same,"spheroid size, single agent",[2],minimal reduction in size
same,toxicity towards non-cancerous control cell lines,[3],well tolerated
same,MIC (μM) MR S. aureus,[4],>80^a μM
same,MIC (μM) P. aeruginosa,[5],50^a μM
same,disruption/lysis of cancer membrane liposomes,[6],significant membrane destabilization and subsequent lysis
same,MIC (μM) E. coli,[7],25 µM
same,cell necrosis (% of population),[8]; 2 hours,16%
same,late apoptotic phenotype (% of cells),[8]; 2 hours,65%
same,early apoptotic stage (% of cells),[8]; 24 hours,19%
same,late apoptotic stage (% of cells),[8]; 24 hours,77%
same,disruption/interaction with normal (healthy) membrane liposomes,[9],did not lyse
same,Therapeutic Index OVCAR-3,[10]; IC50-HUVEC/IC50-OVCAR-3,7
same,IC50,"[10]; read-out: Cancerous (IC50, μM) OVCAR-3, 48 hours treatment, MTT",14.2 µM
same,IC50,"[11]; read-out: Cancerous (IC50, μM) T24, 48 hours treatment, MTT",> 100 µM
same,cytotoxic activity towards T24,[11]; result in words,inactive
same,MIC (μM) M. tuberculosis,[12],2.5 µM
